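Following 48 hours of exposure in 96-well plates, responses at five concentrations were used to interpolate endpoints linearly. TGI: concentration producing complete growth inhibition.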
Assays:
Experiment in all cases: growth of human tumour cells (NCI), 48 h
A549 NSCLC = system: A549 NSCLC
ACHN renal = system: ACHN renal
CCRF-CEM leukemia = system: CCRF-CEM leukemia
HS 578T breast = system: HS 578T breast
HT29 colon = system: HT29 colon
K-562 leukemia = system: K-562 leukemia
MDA-MB-231 breast = system: MDA-MB-231 breast
NCI-H23 lung = system: NCI-H23 lung
OVCAR-4 ovarian = system: OVCAR-4 ovarian
OVCAR-8 ovarian = system: OVCAR-8 ovarian
SF-295 CNS = system: SF-295 CNS
SF-539 CNS = system: SF-539 CNS
SK-MEL-28 melanoma = system: SK-MEL-28 melanoma
SK-MEL-5 melanoma = system: SK-MEL-5 melanoma
SN12C renal = system: SN12C renal
SR leukemia = system: SR leukemia
T-47D breast = system: T-47D breast
U251 CNS = system: U251 CNS
SNB-75 CNS = system: SNB-75 CNS
UACC-62 melanoma = system: UACC-62 melanoma

CC(C)=CCN1c2ccc(Cl)cc2NC(=O)CC1C (stereo not given)
TGI (A549 NSCLC): > 100 µM | TGI (ACHN renal): 58.3 µM | TGI (CCRF-CEM leukemia): > 100 µM | TGI (HS 578T breast): 72.1 µM | TGI (HT29 colon): 37.2 µM | TGI (K-562 leukemia): > 100 µM | TGI (MDA-MB-231 breast): 45.7 µM | TGI (NCI-H23 lung): 74.9 µM | TGI (OVCAR-4 ovarian): 87.9 µM | TGI (OVCAR-8 ovarian): 39.6 µM | TGI (SF-295 CNS): > 100 µM | TGI (SF-539 CNS): 45.4 µM | TGI (SK-MEL-28 melanoma): > 100 µM | TGI (SK-MEL-5 melanoma): 32.2 µM | TGI (SN12C renal): 58 µM | TGI (SR leukemia): > 100 µM | TGI (T-47D breast): > 100 µM | TGI (U251 CNS): 76.6 µM

CCOC(=O)C1=CC(C)(C(=O)OCC)Nc2c(nc(OC)[nH]c2=O)N1 (stereo not given)
TGI (A549 NSCLC): > 10 µM | TGI (ACHN renal): > 10 µM | TGI (CCRF-CEM leukemia): > 10 µM | TGI (HS 578T breast): > 10 µM | TGI (HT29 colon): > 10 µM | TGI (K-562 leukemia): > 10 µM | TGI (MDA-MB-231 breast): > 10 µM | TGI (NCI-H23 lung): > 10 µM | TGI (OVCAR-4 ovarian): > 10 µM | TGI (OVCAR-8 ovarian): > 10 µM | TGI (SF-295 CNS): > 10 µM | TGI (SF-539 CNS): > 10 µM | TGI (SK-MEL-28 melanoma): > 10 µM | TGI (SK-MEL-5 melanoma): > 10 µM | TGI (SN12C renal): > 10 µM | TGI (SNB-75 CNS): > 10 µM | TGI (T-47D breast): > 10 µM | TGI (U251 CNS): > 10 µM

NS(=O)(=O)c1ccc(Nc2c3ccccc3nc3c(C(=O)NCCO)cccc23)cc1
TGI (A549 NSCLC): 0.448 µM | TGI (ACHN renal): 0.917 µM | TGI (CCRF-CEM leukemia): > 1 µM | TGI (HS 578T breast): 0.79 µM | TGI (HT29 colon): 0.302 µM | TGI (K-562 leukemia): 0.887 µM | TGI (MDA-MB-231 breast): 0.362 µM | TGI (NCI-H23 lung): 0.293 µM | TGI (OVCAR-4 ovarian): 0.454 µM | TGI (OVCAR-8 ovarian): 0.902 µM | TGI (SF-295 CNS): 0.605 µM | TGI (SF-539 CNS): 0.27 µM | TGI (SK-MEL-28 melanoma): 0.338 µM | TGI (SK-MEL-5 melanoma): 0.221 µM | TGI (SN12C renal): 0.557 µM | TGI (SR leukemia): 0.0607 µM | TGI (T-47D breast): 0.169 µM | TGI (U251 CNS): 0.205 µM | TGI (UACC-62 melanoma): 0.303 µM

CSc1nc(SC)c2ncn(C3CC(Oc4ccc(C)cc4)C(COc4ccc(C)cc4)O3)c2n1 (stereo not given)
TGI (A549 NSCLC): > 100 µM | TGI (ACHN renal): > 100 µM | TGI (CCRF-CEM leukemia): > 100 µM | TGI (HS 578T breast): > 100 µM | TGI (HT29 colon): > 100 µM | TGI (MDA-MB-231 breast): > 100 µM | TGI (NCI-H23 lung): > 100 µM | TGI (OVCAR-4 ovarian): > 100 µM | TGI (OVCAR-8 ovarian): > 100 µM | TGI (SF-295 CNS): > 100 µM | TGI (SF-539 CNS): > 100 µM | TGI (SK-MEL-28 melanoma): > 100 µM | TGI (SK-MEL-5 melanoma): > 100 µM | TGI (SN12C renal): > 100 µM | TGI (SNB-75 CNS): > 100 µM | TGI (T-47D breast): > 100 µM | TGI (U251 CNS): > 100 µM | TGI (UACC-62 melanoma): > 100 µM

Nc1nc(Nc2ccccc2)sc1C(=O)c1cccs1
TGI (A549 NSCLC): 41.7 µM | TGI (ACHN renal): > 69.8 µM | TGI (CCRF-CEM leukemia): 16.6 µM | TGI (HS 578T breast): 43.3 µM | TGI (HT29 colon): 18.2 µM | TGI (K-562 leukemia): 55.7 µM | TGI (MDA-MB-231 breast): 68.6 µM | TGI (NCI-H23 lung): 38.1 µM | TGI (OVCAR-4 ovarian): 40.6 µM | TGI (OVCAR-8 ovarian): 78.4 µM | TGI (SF-295 CNS): 66.6 µM | TGI (SF-539 CNS): 25.5 µM | TGI (SK-MEL-28 melanoma): > 62.4 µM | TGI (SK-MEL-5 melanoma): 15.9 µM | TGI (SN12C renal): 38.3 µM | TGI (SR leukemia): 11.2 µM | TGI (T-47D breast): > 59.3 µM | TGI (U251 CNS): 40.8 µM | TGI (UACC-62 melanoma): 31 µM

O=C1C(=Cc2cccc(O)c2)N=C(c2ccccc2)N1n1c(-c2ccccc2)nc2ccccc2c1=O
TGI (A549 NSCLC): > 100 µM | TGI (ACHN renal): 58 µM | TGI (CCRF-CEM leukemia): 75.5 µM | TGI (HS 578T breast): 76.8 µM | TGI (HT29 colon): 85 µM | TGI (K-562 leukemia): > 100 µM | TGI (MDA-MB-231 breast): > 100 µM | TGI (NCI-H23 lung): 88.5 µM | TGI (OVCAR-4 ovarian): > 100 µM | TGI (OVCAR-8 ovarian): 98.5 µM | TGI (SF-295 CNS): 65.6 µM | TGI (SF-539 CNS): 51.3 µM | TGI (SK-MEL-28 melanoma): > 100 µM | TGI (SK-MEL-5 melanoma): 48 µM | TGI (SN12C renal): > 100 µM | TGI (SR leukemia): 60.5 µM | TGI (T-47D breast): 91.7 µM | TGI (U251 CNS): > 100 µM | TGI (UACC-62 melanoma): 50.9 µM

CCCCCCCCCCCCCCCCOCC(CCl)OP(=O)(O)OP(=O)(O)OCC1OC(n2ccc(N)nc2=O)C(O)C1O (stereo not given)
TGI (A549 NSCLC): > 100 µM | TGI (ACHN renal): > 100 µM | TGI (CCRF-CEM leukemia): > 100 µM | TGI (HS 578T breast): > 100 µM | TGI (HT29 colon): > 100 µM | TGI (K-562 leukemia): > 100 µM | TGI (MDA-MB-231 breast): > 100 µM | TGI (NCI-H23 lung): > 100 µM | TGI (OVCAR-4 ovarian): > 100 µM | TGI (OVCAR-8 ovarian): > 100 µM | TGI (SF-295 CNS): > 100 µM | TGI (SF-539 CNS): > 100 µM | TGI (SK-MEL-28 melanoma): > 100 µM | TGI (SK-MEL-5 melanoma): > 100 µM | TGI (SN12C renal): > 100 µM | TGI (SNB-75 CNS): 22 µM | TGI (T-47D breast): > 100 µM | TGI (U251 CNS): > 100 µM | TGI (UACC-62 melanoma): > 100 µM

COc1cccc(Cc2cc(=O)c3ccc(C)nc3[nH]2)c1
TGI (A549 NSCLC): > 100 µM | TGI (CCRF-CEM leukemia): > 100 µM | TGI (HS 578T breast): > 100 µM | TGI (HT29 colon): > 100 µM | TGI (K-562 leukemia): > 100 µM | TGI (MDA-MB-231 breast): > 100 µM | TGI (NCI-H23 lung): > 100 µM | TGI (OVCAR-8 ovarian): > 100 µM | TGI (SF-295 CNS): > 100 µM | TGI (SK-MEL-28 melanoma): > 100 µM | TGI (SK-MEL-5 melanoma): > 100 µM | TGI (SN12C renal): > 100 µM | TGI (SNB-75 CNS): > 100 µM | TGI (SR leukemia): > 100 µM | TGI (T-47D breast): > 100 µM | TGI (U251 CNS): > 100 µM | TGI (UACC-62 melanoma): > 100 µM

COC(=O)C1C2CC3C1C3C2C(=O)OC (stereo not given)
TGI (A549 NSCLC): > 100 µM | TGI (ACHN renal): > 100 µM | TGI (CCRF-CEM leukemia): > 100 µM | TGI (HS 578T breast): > 100 µM | TGI (HT29 colon): > 100 µM | TGI (K-562 leukemia): > 100 µM | TGI (MDA-MB-231 breast): > 100 µM | TGI (NCI-H23 lung): > 100 µM | TGI (OVCAR-4 ovarian): > 100 µM | TGI (OVCAR-8 ovarian): > 100 µM | TGI (SF-295 CNS): > 100 µM | TGI (SF-539 CNS): > 100 µM | TGI (SK-MEL-28 melanoma): > 100 µM | TGI (SK-MEL-5 melanoma): > 100 µM | TGI (SN12C renal): > 100 µM | TGI (SNB-75 CNS): > 100 µM | TGI (T-47D breast): > 100 µM | TGI (U251 CNS): > 100 µM | TGI (UACC-62 melanoma): > 100 µM

COC(=O)c1c2c(cc3c1CC1(Cc4cc5c(cc4C1=O)CCC5)C3)CCC2 (stereo not given)
TGI (A549 NSCLC): > 100 µM | TGI (ACHN renal): > 100 µM | TGI (CCRF-CEM leukemia): > 100 µM | TGI (HS 578T breast): > 100 µM | TGI (HT29 colon): > 100 µM | TGI (K-562 leukemia): > 100 µM | TGI (MDA-MB-231 breast): > 100 µM | TGI (NCI-H23 lung): > 100 µM | TGI (OVCAR-4 ovarian): > 100 µM | TGI (OVCAR-8 ovarian): > 100 µM | TGI (SF-295 CNS): > 100 µM | TGI (SF-539 CNS): > 100 µM | TGI (SK-MEL-28 melanoma): > 100 µM | TGI (SK-MEL-5 melanoma): 54.4 µM | TGI (SN12C renal): > 100 µM | TGI (SNB-75 CNS): > 100 µM | TGI (T-47D breast): > 100 µM | TGI (U251 CNS): > 100 µM | TGI (UACC-62 melanoma): > 100 µM

— PubChem BioAssay (NCI)
